{"source": "patent US20140356293A1", "about": "“FLUORESCENT COMPOSITIONS WITH ENHANCED FLUORESCENCE AND METHODS BASED THEREON” (The Research Foundation of the State University o New York, priority 2012, published 2014)", "key": {"[1]": {"conditions": "in vivo; cited from earlier work"}, "[2]": {"experiment": "Stability of ICG fluorescence (storage of stock solutions; constant illumination)", "type": "physicochemical", "procedure": "A vial of ICG containing 2.5 mg of ICG was dissolved into 10 ml of DMSO. […] Aqueous solutions fade rapidly. The ICG in DMSO (“ICG/DMSO”) stock solution was diluted into Enfamil and fluorescence intensity measured. […] The DMSO concentration at the peak fluorescence was 0.3%. Thus enhancement of fluorescence intensity was similar to that observed with use of reconstituted nonfat dry milk.\nWith respect to FIG. 12, a solution of ICG in Enfamil (8 μg/ml) in a Petri dish was positioned in the imaging system. With constant illumination the fluorescence image was captured every 10 seconds for 22 minutes."}, "[3]": {"conditions": "cited from earlier work"}, "[4]": {"experiment": "Aqueous ICG preparation used to image the urinary tract of rats", "type": "physicochemical", "conditions": "aqueous solution 2.5 mg/ml diluted", "procedure": "ICG used to image the urinary tract of rats was prepared according to package insert instructions (aqueous solution 2.5 mg/ml) and diluted to 10 μg/ml to achieve peak fluorescence. It was observed that the fluorescence of these preparations was not as intense as that achieved when ICG was injected intravenously and diluted into the blood."}, "[5]": {"experiment": "Relative fluorescence intensity of ICG formulations in Petri dishes, NIRF imaging system", "type": "physicochemical", "conditions": "for maximum fluorescent intensity: 5 μg/ml ICG", "procedure": "Real-time near-infrared fluorescent (NIRF) imaging was accomplished using a NIRF imaging system. The ring light was coupled to a tungsten halogen source filtered with a Chroma excitation filter (775 nm). The Navitar Zoom 7000 lens was fitted with a Chroma emission filter (845 nm). Images were captured with a Qimaging Retiga camera. Petri dishes (35 mm diameter) were positioned in the imaging system that contained 2 ml of a sample of an enhanced fluorescent composition comprising ICG. This system was used in the investigations of ICG fluorescence enhancement described in this example. Excitation light was delivered to the field of interest using a fiber optic ring light coupled to a tungsten halogen source (Illumination Technologies, Inc. IT 9596-ER) filtered with a 775 nm bandpass filter (Chroma Technologies). A Navitar Zoom 7000 Lens was fitted on a Qimaging Retiga EXi cooled CCD camera.\nIndocyanine Green (ICG) stock solutions were prepared by adding 10 ml of diluent to a 25 mg vial of IC Green (Akorn Incorporated). Diluents were water (supplied by the manufacturer), ethanol, or dimethyl sulfoxide (DMSO).\nMilk solutions were prepared by dissolving Instant Nonfat Dry Milk (Nestle Carnation) in water at various concentrations up to 30% weight to volume\nTo prepare ICG-based enhanced fluorescent compositions, ICG stock solutions were added to achieve concentrations up to 250 μg/ml. Relative fluorescence intensity of various formulations was measured in 35 mm circular Petri dishes containing 2 ml. A floating toothpick provided a focusing target.\nIntralipid formulations were prepared from Intralipid 20% (Fresenius Kabi), which is a sterile non-pyrogenic fat emulsion prepared for intravenous administration for parenteral nutrition. Intralipid is also a vehicle for intravenous (i.v.) delivery of propofol, and is used as an antidote for acute local anesthetic toxicity. It is a white opaque liquid containing 20% soy bean oil, egg phospholipids, glycerin, and water. ICG stock solutions were added to achieve a range of concentrations of ICG up to 250 μg/ml in the enhanced fluorescent composition.\nStock aqueous ICG solution was diluted into 10, 20, and 30% milk to achieve 1, 5, 10, and 20 μg/ml final concentrations. Fluorescent images of 2 ml of each preparation in 35 mm Petri dishes were acquired using QCapture and quantified using ImageJ.\n[…] […] The ICG in DMSO (“ICG/DMSO”) stock solution was diluted into Enfamil and fluorescence intensity measured.\nIntralipid is milk-like in its appearance and the major ingredient is 20% soy bean oil. Because Intralipid is approved for human intravenous use, a series of diluted solutions was prepared from the ICG/DMSO stock solution.\nIn the work summarized in FIG. 9, solutions of ICG were prepared in DMSO, water, or ethanol at 2.5 mg/ml and then diluted to the indicated concentrations across the top of the figure in the diluents listed down the left side. The DMSO and ethanol diluents were diluted with water. Two ml of each solution was transferred to a Petri dish and imaged as described herein in an NIRF imaging system. […] Also imaged were the same ICG concentrations in 5% ethanol and water. […] The use of ethanol and DMSO in pharmaceuticals is limited by the toxicity of these compounds."}}, "note": "Values joined by “and” are separate entries in the source; they are usually repeats but may differ in a detail not shown here. Equal values may be shown once. Read-outs that look alike come from different tables or passages of the source."}
{"molecule": "CC1(C)C(/C=C/C=C/C=C/C=C2\\N(CCCCS(=O)(=O)O)c3ccc4ccccc4c3C2(C)C)=[N+](CCCCS(=O)(=O)[O-])c2ccc3ccccc3c21", "note": "[ICG, Indocyanine green]", "values": [{"measurement": "Route of excretion", "setting": "[1]", "value": "excreted exclusively in the bile"}, {"measurement": "Persistence of fluorescence of aqueous solutions", "setting": "[2]", "value": "fade rapidly"}, {"measurement": "Maximum fluorescence wavelength", "setting": "[3]; in blood", "value": "approximately 830 nm"}, {"measurement": "maximum absorption", "setting": "[3]; in plasma at low concentrations", "value": "~800", "unit": "nm"}, {"measurement": "Maximum fluorescence wavelength", "setting": "[3]; in water", "value": "approximately 810 nm"}, {"measurement": "ICG concentration to achieve peak fluorescence", "setting": "[4]", "value": 10, "unit": "µg/mL"}, {"measurement": "maximum fluorescent intensity", "setting": "[5]; 10% milk, arbitrary units of integrated density", "value": "about 950000 IntDen"}, {"measurement": "maximum fluorescent intensity", "setting": "[5]; 20% milk", "value": "about 1000000 IntDen"}, {"measurement": "maximum fluorescent intensity", "setting": "[5]; 30% milk", "value": "about 1150000 IntDen"}, {"measurement": "Dependence of fluorescence on milk concentration", "setting": "[5]; 10, 20, 30% milk", "value": "increased with milk concentration"}, {"measurement": "Fluorescence intensity versus ICG concentration", "setting": "[5]; 25% DMSO in water, FIG. 9", "value": "increased from 1 to 100 μg/ml"}, {"measurement": "ICG concentration at which imaging system was fully saturated", "setting": "[5]; 100% DMSO, FIG. 9", "value": 12.5, "unit": "µg/mL"}, {"measurement": "Fluorescence intensity versus ICG concentration", "setting": "[5]; 100% ethanol, FIG. 9", "value": "lower than in DMSO but increased up to 100 μg/ml"}, {"measurement": "ICG concentration at peak fluorescence", "setting": "[5]; ICG in DMSO diluted into Enfamil, Example 2, FIG. 10", "value": "around 8 μg/ml"}, {"measurement": "ICG concentration at peak fluorescence", "setting": "[5]; ICG in DMSO diluted into Intralipid, exposure time reduced from 90 to 70 ms, Example 2, FIG. 10", "value": 8, "unit": "µg/mL"}, {"measurement": "ICG concentration at peak fluorescence", "setting": "[5]; ICG/DMSO stock (2.5 mg/ml) diluted into Enfamil, final DMSO 0.3%, Example 1, FIG. 5", "value": 7.8, "unit": "µg/mL"}, {"measurement": "ICG concentration at peak fluorescence", "setting": "[5]; aqueous ICG stock diluted into 10, 20 and 30% reconstituted nonfat dry milk, 1, 5, 10, 20 μg/ml tested", "value": 5, "unit": "µg/mL"}, {"measurement": "ICG concentration at which quenching occurred", "setting": "[5]; in 10, 20 and 30% reconstituted dry milk", "value": "≥ 10", "unit": "µg/mL"}, {"measurement": "ICG concentration at which fluorescence decreased (quenched)", "setting": "[5]; in Enfamil, FIG. 9", "value": "50 µg/mL and 100 µg/mL"}, {"measurement": "Fluorescence of ICG diluted into water or saline", "setting": "[5]; same imaging conditions as milk preparations", "value": "no detectable fluorescence"}]}
